Common to all, as to details: 72 h
Assay [1] has as its system CAL-85-1. An outline of the steps: (§1)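 Rows with a drug sensitivity score of zero were dropped, and EC50 was taken from the fitted percent-inhibition dose-response curve, censored at the highest concentration. Data were normalised on each plate to vehicle and a positive kill control and checked by Z'-factor. The assay seeded breast cancer cell lines in 20 µl onto 384-well plates pre-loaded with compound in 5 µl medium for 72 h, then added 2.5 µl CellTiter-Blue for 2 h at 37 °C and read fluorescence at 560/590 nm.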

Assay [2] concerns HDQ-P1. An outline of the steps:
as §1

In assay [3] the test system is MDA-MB-453. The procedure, abridged:
as §1

Assay [4] concerns BT-474. An outline of the steps:
as §1

For assay [5], the system named is MDA-MB-468. An outline of the steps:
as §1

Assay [6] has as its system SK-BR-3. The procedure, abridged:
as §1

The subject of assay [7] is CAL-51. The procedure, abridged:
as §1

The test system of assay [8] is DU-4475. An outline of the steps:
as §1

In assay [9] the test system is CAL-120. The procedure, abridged: as §1
The subject of assay [10] is BT-474. An outline of the steps:
(§2)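 Breast cancer cell lines in 20 µl suspension were added to 384-well plates already holding compound at 5 concentrations, spaced in 10-fold steps across a compound-specific 10,000-fold range, and incubated for 72 h. CellTox Green fluorescence (485/520 nm) was read first to measure cell death, followed by CellTiter-Glo luminescence for viability after 10 min at room temperature. Each plate was normalised to 0.1 % DMSO and a positive kill control. EC50 values came from dose-response curve fits and were censored at the top concentration.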
The source holds these as a separate data set.

Assay [11] relates to CAL-120. The procedure, abridged:
as §2
This is another data set of the same source.

Assay [12] relates to CAL-51. An outline of the steps: as §2
The source holds these as a separate data set.

Assay [13] deals with MDA-MB-468. An outline of the steps:
as §2
The source holds these as a separate data set.

Assay [14] relates to Hs578T. The procedure, abridged: as §1
The subject of assay [15] is MDA-MB-436. An outline of the steps:
as §1

The test system of assay [16] is BT-549. An outline of the steps:
as §2

Assay [17] deals with CAL-148. The procedure, abridged:
as §2

The test system of assay [18] is CAL-85-1. The procedure, abridged:
as §2
This is another data set of the same source.

Assay [19] deals with DU-4475. An outline of the steps:
as §2
The source holds these as a separate data set.

For the next assay, the system named is HCC1143. An outline of the steps:
as §2

In the next assay the test system is HCC1599. The procedure, abridged:
as §2

In assay [20] the test system is HDQ-P1. The procedure, abridged: as §2
This is another data set of the same source.

The test system of assay [21] is Hs578T. The procedure, abridged: as §2
The source holds these as a separate data set.

Assay [22] concerns MCF-10A. The procedure, abridged:
as §2

Assay [23] relates to MDA-MB-231. The procedure, abridged: as §2
Assay [24] concerns MDA-MB-436. The procedure, abridged:
as §2
This is another data set of the same source.

The subject of assay [25] is MDA-MB-453. An outline of the steps:
as §2
This is another data set of the same source.

The subject of assay [26] is MFM-223. The procedure, abridged: as §2
Assay [27] relates to SK-BR-3. The procedure, abridged: as §2
The source holds these as a separate data set.

In assay [28] the test system is CAL-148. The procedure, abridged:
as §1
The source holds these as a separate data set.

The test system of assay [29] is BT-549. The procedure, abridged: as §1
This is another data set of the same source.

Assay [30] concerns MFM-223. The procedure, abridged: as §1
This is another data set of the same source.

In assay [31] the test system is CAL-120. As for the experimental part:
(§3)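 Drug sensitivity and resistance testing (DSRT) of breast cancer cell lines in 384-well plates, 5 concentrations in 10-fold dilutions over a compound-specific 10,000-fold range. After 72 h, cytotoxicity was read by CellTox Green fluorescence and viability by CellTiter-Glo luminescence (multiplexed), normalised to DMSO and benzethonium chloride controls. EC50 is the inflection point of the fitted dose-response curve (bottom asymptote free, so it can be relative for partial curves) and is censored at the highest tested concentration. Rows with DSS 0 (no meaningful response) were excluded.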
The source holds these as a separate data set.

Assay [32] has as its system CAL-51. The method, then: as §3
The source holds these as a separate data set.

Assay [33] has as its system CAL-85-1. The method, then: as §3
This is another data set of the same source.

The subject of assay [34] is Hs578T. As for the experimental part: as §3
This is another data set of the same source.

The subject of assay [35] is MCF-10A. As for the experimental part:
as §3
This is another data set of the same source.

The subject of assay [36] is MDA-MB-231. The method, then:
as §3
The source holds these as a separate data set.

For assay [37], the system named is MFM-223. As for the experimental part: as §3
This is another data set of the same source.

Some results are limits rather than exact numbers.

The values that follow come from the supplement of paper PMC4862054.

With `C=CC(=O)N1CCC[C@@H](n2nc(-c3ccc(Oc4ccccc4)cc3)c3c(N)ncnc32)C1`, the “EC50, CellTiter-Blue viability” value in the assay on CAL-85-1 [1] came out at 849 nM; in the assay with HDQ-P1 [2], 407 nM; in the assay on MDA-MB-453 [3] it was 18.5 nM; with BT-474 [4], 14.7 nM; in the assay with MDA-MB-468 [5], 71.1 nM; in the assay on SK-BR-3 [6] it was 8.82 nM.
`CC(=O)Nc1cccc(-n2c(=O)n(C3CC3)c(=O)c3c(Nc4ccc(I)cc4F)n(C)c(=O)c(C)c32)c1`: the “EC50, CellTiter-Blue viability” value with CAL-51 [7] came out at 9.94 nM; in the assay with CAL-85-1 [1] it was 19.4 nM; in the assay with DU-4475 [8] it was 0.91 nM; in the assay on HDQ-P1 [2], 4.17 nM; in the assay with MDA-MB-453 [3], 20.2 nM; with CAL-120 [9] it was 20.6 nM. The “EC50, CellTiter-Blue viability” value with MDA-MB-468 [5] came out at 35.7 nM.
In the case of `CCc1cncnc1N1CCN(Cc2nc3ccc(C(F)(F)F)cc3[nH]2)CC1`, the “EC50, CellTiter-Glo” value with BT-474 [10] is greater than 10000 nM; in the assay on CAL-120 [11], greater than 10000 nM; with CAL-51 [12] it was 543 nM; in the assay on MDA-MB-468 [13], 1350 nM.
Turning to `Cc1cnc(NC(=O)Nc2cc(Br)c(C)cc2OC[C@@H]2CNCCO2)cn1`, the “EC50, CellTiter-Blue viability” value in the assay with Hs578T [14] turned out to be 745 nM; in the assay with MDA-MB-436 [15], 98.7 nM; with SK-BR-3 [6], 715 nM.
In the case of `CC[C@@H]1C(=O)N(C)c2cnc(Nc3ccc(C(=O)NC4CCN(C)CC4)cc3OC)nc2N1C1CCCC1` [BI 2536], the “EC50, CellTiter-Glo” value in the assay on BT-474 [10] came to 6.44 nM; in the assay on BT-549 [16], 4.82 nM; in the assay on CAL-120 [11], 5.9 nM; in the assay on CAL-148 [17], 3.14 nM; in the assay with CAL-51 [12] it was 10.9 nM; in the assay with CAL-85-1 [18] it was 2.42 nM. For the same compound, the “EC50, CellTiter-Glo” value in the assay with DU-4475 [19] stood at 10.2 nM; in the assay on HCC1143, 6.01 nM; with HCC1599, 37.2 nM; in the assay on HDQ-P1 [20], 21.4 nM; with Hs578T [21], 31.6 nM; in the assay on MCF-10A [22], 34 nM. Moreover, the “EC50, CellTiter-Glo” value with MDA-MB-231 [23] is 2.75 nM; in the assay on MDA-MB-436 [24] it was 2.44 nM; with MDA-MB-453 [25] it was 2.55 nM; with MDA-MB-468 [13], 2.04 nM; in the assay on MFM-223 [26], 2.27 nM; in the assay on SK-BR-3 [27], 2.39 nM. In addition, the “EC50, CellTiter-Blue viability” value in the assay on CAL-148 [28] is 4.74 nM; in the assay with CAL-51 [7], 12.5 nM; in the assay on CAL-85-1 [1] it was 2.85 nM; in the assay with DU-4475 [8], 6.01 nM; with HDQ-P1 [2] it was greater than 1000 nM; with MDA-MB-453 [3] it was 2.09 nM. For the same compound, the “EC50, CellTiter-Blue viability” value with BT-549 [29] came out at 1.56 nM; in the assay with CAL-120 [9] it was 3.52 nM; in the assay with Hs578T [14] it was 10.5 nM; with MDA-MB-436 [15], 3.72 nM; in the assay on MDA-MB-468 [5], 3.48 nM; in the assay on MFM-223 [30] it was 1.57 nM. The “EC50, CellTiter-Blue viability” value with SK-BR-3 [6] came to 2.63 nM. Besides, the “EC50, CellTox Green” value in the assay on CAL-120 [31] amounted to 120 nM; in the assay on CAL-51 [32] it was 5.72 nM; in the assay with CAL-85-1 [33], 24.1 nM; in the assay on Hs578T [34] it was 419 nM; in the assay with MCF-10A [35], 2.65 nM; in the assay on MDA-MB-231 [36] it was 2.26 nM. For the same compound, the “EC50, CellTox Green” value in the assay on MFM-223 [37] was found to be 2.41 nM.
With `CC[C@H](Nc1ncnc2[nH]cnc12)c1nc2cccc(F)c2c(=O)n1-c1ccccc1` [CAL-101], the “EC50, CellTiter-Blue viability” value in the assay with DU-4475 [8] was 5560 nM; in the assay with HDQ-P1 [2] it was 5250 nM; with MDA-MB-453 [3], 2180 nM; in the assay with BT-549 [29] it was 2240 nM; in the assay on CAL-120 [9] it was 8280 nM; in the assay on MDA-MB-468 [5] it was 2380 nM. Also, in the assay with SK-BR-3 [6], the “EC50, CellTiter-Blue viability” value came to 2160 nM.
For the compound `O=C(O)CCCCC(CCSCc1ccccc1)SCc1ccccc1` (centres undefined) [CPI-613], in the assay on CAL-85-1 [33], the “EC50, CellTox Green” value was greater than 10000 nM.
As for `O=C(O)C1(C(=O)O)CCC1.[NH2-].[NH2-].[Pt+2]` [Carboplatin], the “EC50, CellTiter-Blue viability” value is 5150 nM in the assay with CAL-148 [28], 9460 nM with CAL-51 [7], 7350 nM with MDA-MB-453 [3] and 9690 nM with MFM-223 [30].
On to `COc1cc2c(Oc3ccc4[nH]c(C)cc4c3F)ncnc2cc1OCCCN1CCCC1` [Cediranib], for which the “EC50, CellTiter-Glo” value in the assay with MFM-223 [26] worked out at 338 nM.
Turning to `Cc1ccc(-c2cc(C(F)(F)F)nn2-c2ccc(S(N)(=O)=O)cc2)cc1` [Celecoxib], the “EC50, CellTiter-Blue viability” value in the assay with HDQ-P1 [2] is 67.5 nM; with MDA-MB-453 [3], 7690 nM; in the assay on MDA-MB-436 [15] it was 183 nM.
